Drawing on publication PMC2213567 (The Journal of General Physiology, 2008), this text covers Kd for one molecule.

This test deals with α4β2δ GABAAR (Mus musculus (alpha4); Rattus norvegicus (beta2); Homo sapiens (delta), UniProt P63138+Q9D6F4). Put plainly: ultrafast agonist application, outside-out macropatch. It counts as cell-based.

By Kd is commonly meant the equilibrium constant for the complex coming apart. Lower therefore signals tighter binding.

Chain of α4β2δ GABAAR (Q9D6F4 36-552): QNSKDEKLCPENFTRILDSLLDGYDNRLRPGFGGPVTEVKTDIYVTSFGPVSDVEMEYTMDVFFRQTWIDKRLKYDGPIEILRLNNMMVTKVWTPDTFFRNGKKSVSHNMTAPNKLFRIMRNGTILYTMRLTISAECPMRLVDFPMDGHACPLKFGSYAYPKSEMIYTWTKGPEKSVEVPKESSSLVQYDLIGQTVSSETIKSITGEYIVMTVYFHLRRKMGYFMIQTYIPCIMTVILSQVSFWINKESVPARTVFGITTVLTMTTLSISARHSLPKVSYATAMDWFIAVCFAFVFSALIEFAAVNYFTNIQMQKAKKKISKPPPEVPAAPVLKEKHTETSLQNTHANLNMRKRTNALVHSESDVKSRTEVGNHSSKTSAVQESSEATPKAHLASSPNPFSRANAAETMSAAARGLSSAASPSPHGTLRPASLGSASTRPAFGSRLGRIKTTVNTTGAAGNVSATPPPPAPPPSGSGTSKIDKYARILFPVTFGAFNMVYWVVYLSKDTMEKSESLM
Chain of α4β2δ GABAAR (P63138 26-474): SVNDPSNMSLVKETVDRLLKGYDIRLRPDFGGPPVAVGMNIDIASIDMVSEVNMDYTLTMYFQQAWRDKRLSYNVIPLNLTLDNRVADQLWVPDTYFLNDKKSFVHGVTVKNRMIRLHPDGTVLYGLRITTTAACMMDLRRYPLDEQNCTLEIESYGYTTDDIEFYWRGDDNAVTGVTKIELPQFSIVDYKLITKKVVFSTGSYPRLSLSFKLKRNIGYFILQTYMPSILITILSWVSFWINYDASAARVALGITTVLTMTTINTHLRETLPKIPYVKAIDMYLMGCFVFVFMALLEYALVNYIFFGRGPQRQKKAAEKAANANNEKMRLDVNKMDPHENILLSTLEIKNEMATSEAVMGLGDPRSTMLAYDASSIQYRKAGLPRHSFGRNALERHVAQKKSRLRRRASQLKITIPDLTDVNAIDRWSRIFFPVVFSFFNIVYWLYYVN
Chain of α4β2δ GABAAR (O14764 25-452 partner): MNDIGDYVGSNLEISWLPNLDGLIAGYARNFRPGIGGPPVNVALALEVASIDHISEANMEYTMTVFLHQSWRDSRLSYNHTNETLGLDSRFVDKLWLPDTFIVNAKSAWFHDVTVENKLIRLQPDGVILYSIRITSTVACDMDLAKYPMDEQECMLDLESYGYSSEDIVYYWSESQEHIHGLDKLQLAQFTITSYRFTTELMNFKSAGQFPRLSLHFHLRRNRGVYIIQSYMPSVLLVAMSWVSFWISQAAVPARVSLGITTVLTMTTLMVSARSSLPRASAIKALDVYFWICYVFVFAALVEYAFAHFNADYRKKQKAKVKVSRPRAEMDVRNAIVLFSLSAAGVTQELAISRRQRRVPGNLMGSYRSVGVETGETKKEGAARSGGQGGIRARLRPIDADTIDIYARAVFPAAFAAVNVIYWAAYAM

For `Oc1noc2c1CCNC2` [THIP, 4,5,6,7-tetrahydroisoxazolo[5,4-c]pyridin-3(2H)-one], the Kd was 683 µM.
